Where two headings read alike, the source gives them in different places.
Key:
Format in all cases: cell-based, human
FaDu cells = assay: Inhibition test for sphere-forming ability of cancer cells (Test Example 1), FaDu; settings: for IC50: read-out: IC50 (μmol/L) FaDu (Sphere IC50 value)
Description: (§1) The reliable methods established for measuring the self-renewal ability of cells which is one of the CSC's properties include a method for measuring the sphere-forming ability of cancer cells in non-adherent condition in the absence of serum (Cancer Res 65, 5506-5511 (2005)). Human colorectal cancer-derived HCT-116 cells, human colon-adenocarcinoma-derived HT-29 cells, and human pharyngeal cancer-derived FaDu cells were available from American Type Culture Collection (ATCC). HCT-116 cells and HT-29 cells were cultured at 37° C. under 5% CO2 using the McCoy's 5a medium containing 10% fetal bovine serum (FBS) and 1% penicillin/streptomycin, and FaDu cells were cultured at 37° C. under 5% CO2 using the MEM medium containing 10% FBS, 1% non-essential amino acid, 1% sodium pyruvate, and 1% penicillin/streptomycin. HCT-116 cells, HT-29 cells, and FaDu cells were seeded in a 384 Well Black Clear Bottom Ultra-Low Attachment Microplate (Corning Cat. No. 3827) in an amount of 350-800 cells/well using the DMEM/F12 medium containing 2% B27 supplement (GIBCO), 20 ng/mL epidermal growth factor (EGF) (peprotech), 10 ng/mL basic fibroblast growth factor (bFGF) (peprotech), 5 μg/mL insulin (Sigma), and 1% penicillin/streptomycin. Each test compound was added into each well to adjust the final concentration of DMSO to 0.1%, and the cells were cultured for 4 days. The number of viable cells in each well was then measured with CellTiter-Glo® Luminescent Cell Viability Assay (Promega) to calculate the concentration of each test compound for 50% inhibition of cell proliferation (Sphere IC50 value; μmol/L).
(§2) The experiment of Test Example 1 was performed for each compound of each Example. The concentration of each test compound for 50% inhibition of cell proliferation (Sphere IC50 value; μmol/L) is shown in the following Table.

HT-29 cells = assay: Inhibition test for sphere-forming ability of cancer cells (Test Example 1), HT-29; settings: for IC50: read-out: IC50 (μmol/L) HT-29 (Sphere IC50 value)
Description: as §1, §2

HCT-116 cells = assay: Inhibition test for sphere-forming ability of cancer cells (Test Example 1), HCT-116; settings: for IC50: read-out: IC50 (μmol/L) HCT-116 (Sphere IC50 value); for inhibitory effect on the sphere-forming ability of cancer cells: Test Example 1, summary in words, cell line not given (HCT-116, HT-29, FaDu tested)
Description: as §1, §2

[1] = concentration for 50% inhibition of cell proliferation
[2] = HCT-116 cells, concentration for 50% inhibition of cell proliferation
[3] = Homo sapiens, concentration for 50% inhibition of cell proliferation
[4] = Homo sapiens, HCT-116 cells, concentration for 50% inhibition of cell proliferation

Row | SMILES | IC50 (FaDu cells; [1]) [µmol/L] | IC50 (HT-29 cells; [1]) [µmol/L] | IC50 (HCT-116 cells; [2]) [µmol/L] | IC50 (FaDu cells; [3]) [µmol/L] | IC50 (HT-29 cells; [3]) [µmol/L] | IC50 (HCT-116 cells; [4]) [µmol/L] | other results
1 | COc1ccc(/C=C/C(=O)Nc2cn(Cc3cccc(Cl)c3)cn2)c(OC)c1 [Example 71] | 0.06 | 0.03 | 0.23 |  |  |  | inhibitory effect on the sphere-forming ability of cancer cells (HCT-116 cells): particularly potent inhibitory effect
2 | Cc1ccccc1/C=C/C(=O)Nc1cn(Cc2cccc(Cl)c2)cn1 [Example 72] | 0.29 | 0.09 | 4.42 |  |  |  | 
3 | Cc1cccc(/C=C/C(=O)Nc2cn(Cc3cccc(Cl)c3)cn2)c1 [Example 73] | 0.85 | 1.49 | 4.53 |  |  |  | 
4 | CCOc1ccc(/C=C/C(=O)Nc2cn(Cc3cccc(Cl)c3)cn2)cc1 [Example 74] | < 0.01 | < 0.01 | 0.05 |  |  |  | inhibitory effect on the sphere-forming ability of cancer cells (HCT-116 cells): particularly potent inhibitory effect
5 | COc1cc(/C=C/C(=O)Nc2cn(Cc3cccc(Cl)c3)cn2)c([N+](=O)[O-])cc1OC [Example 75] | 7.19 | 6.45 | 7.56 |  |  |  | 
6 | COc1cccc(OC)c1/C=C/C(=O)Nc1cn(Cc2cccc(Cl)c2)cn1 [Example 76] | 4.11 | 2.71 | 6.18 |  |  |  | 
7 | COc1ccccc1/C=C/C(=O)Nc1cn(Cc2cccc(Cl)c2)cn1 [Example 77] | < 0.01 | 0.38 | 0.84 |  |  |  | inhibitory effect on the sphere-forming ability of cancer cells (HCT-116 cells): particularly potent inhibitory effect
8 | O=C(/C=C/c1ccc(F)cc1Br)Nc1cn(Cc2cccc(Cl)c2)cn1 [Example 78] | 8.9 | 6.34 | 7.31 |  |  |  | 
9 | O=C(/C=C/c1cccc(Oc2ccccc2)c1)Nc1cn(Cc2cccc(Cl)c2)cn1 [Example 79] | 0.86 | 0.7 | 0.79 |  |  |  | 
10 | COc1ccc(/C=C/C(=O)Nc2cn(Cc3cccc(Cl)c3)cn2)cc1Cl [Example 80] | 0.87 | 7.04 | > 10 |  |  |  | 
11 | O=C(/C=C/c1ccc(O)c(F)c1)Nc1cn(Cc2cccc(Cl)c2)cn1 [Example 81] | 0.76 | 6.12 | 3.82 |  |  |  | 
12 | COc1cc(/C=C/C(=O)Nc2cn(Cc3cccc(Cl)c3)cn2)cc(OC)c1OC [Example 82] | 1.76 | 0.99 | 6.51 |  |  |  | 
13 | O=C(/C=C/c1cc(Cl)ccc1Cl)Nc1cn(Cc2cccc(Cl)c2)cn1 [Example 83] | 0.91 | 0.6 | 0.8 |  |  |  | 
14 | O=C(/C=C/c1ccc(O)cc1)Nc1cn(Cc2cccc(Cl)c2)cn1 [Example 84] | 0.68 | 0.52 | 0.59 |  |  |  | 
15 | COc1cc(/C=C/C(=O)Nc2cn(Cc3cccc(Cl)c3)cn2)cc(OC)c1 [Example 85] |  |  |  |  |  |  | IC50 (μmol/L) FaDu (Sphere IC50 value) (FaDu cells; [1]): 13.73 µmol/L; IC50 (μmol/L) HT-29 (Sphere IC50 value) (HT-29 cells; [1]): 25.90 µmol/L; IC50 (μmol/L) HCT-116 (Sphere IC50 value) (HCT-116 cells; [2]): 17.96 µmol/L
16 | O=C(/C=C/c1ccco1)Nc1cn(Cc2cccc(Cl)c2)cn1 [Example 87] | 5.14 | 5.53 | 2.37 |  |  |  | 
17 | O=C(/C=C/c1ccoc1)Nc1cn(Cc2cccc(Cl)c2)cn1 [Example 88] | 0.91 | 0.83 | 0.88 |  |  |  | 
18 | O=C(/C=C/c1c[nH]c2ccccc12)Nc1cn(Cc2cccc(Cl)c2)cn1 [Example 89] | 0.04 | 0.61 | 0.96 |  |  |  | 
19 | O=C(/C=C/c1c[nH]cn1)Nc1cn(Cc2cccc(Cl)c2)cn1 [Example 90] | 6.32 | 7.87 | 8.17 |  |  |  | 
20 | Cc1ccncc1/C=C/C(=O)Nc1cn(Cc2cccc(Cl)c2)cn1 [Example 91] | 6.15 | 4.5 | 7.51 |  |  |  | 
21 | O=C(/C=C/c1cnc2ccccc2c1)Nc1cn(Cc2cccc(Cl)c2)cn1 [Example 92] | 0.74 | 0.62 | 1.61 |  |  |  | 
22 | Cc1cc(/C=C/C(=O)Nc2cn(Cc3cccc(Cl)c3)cn2)oc1C [Example 93] | 0.09 | 4.93 | 0.82 |  |  |  | inhibitory effect on the sphere-forming ability of cancer cells (HCT-116 cells): particularly potent inhibitory effect

Row | SMILES | IC50 (FaDu cells; [1]) [µmol/L] | IC50 (HT-29 cells; [1]) [µmol/L] | IC50 (HCT-116 cells; [2]) [µmol/L] | IC50 (FaDu cells; [3]) [µmol/L] | IC50 (HT-29 cells; [3]) [µmol/L] | IC50 (HCT-116 cells; [4]) [µmol/L] | other results
23 | O=C(/C=C/c1cccs1)Nc1cn(Cc2cccc(Cl)c2)cn1 [Example 94] | 4.57 | 0.97 | 7.88 |  |  |  | 
24 | O=C(/C=C/c1ccc2ccccc2c1)Nc1cn(Cc2cccc(Cl)c2)cn1 [Example 95] | 0.99 | 3.23 | > 10 |  |  |  | 
25 | O=C(/C=C/c1ccc(N2CCOCC2)cc1)Nc1cn(Cc2cccc(Cl)c2)cn1 [Example 96] | 0.07 | 0.09 | 0.83 |  |  |  | inhibitory effect on the sphere-forming ability of cancer cells (HCT-116 cells): particularly potent inhibitory effect
26 | O=C(/C=C/c1ccncc1)Nc1cn(Cc2cccc(Cl)c2)cn1 [Example 97] | 0.06 | 0.05 | 0.08 |  |  |  | inhibitory effect on the sphere-forming ability of cancer cells (HCT-116 cells): particularly potent inhibitory effect
27 | O=C(/C=C/c1ccccn1)Nc1cn(Cc2cccc(Cl)c2)cn1 [Example 98] | 7.75 | 7.58 | > 10 |  |  |  | 
28 | O=C(/C=C/c1cccnc1)Nc1cn(Cc2cccc(C(F)(F)F)c2)cn1 [Example 103] |  |  |  | 0.6 | 0.6 | 0.87 | 
29 | O=C(/C=C/c1cccc(Oc2ccccc2)c1)Nc1cn(Cc2cccc(C(F)(F)F)c2)cn1 [Example 104] |  |  |  | 2.7 | 0.79 | 2.09 | 
30 | Cc1cccc(/C=C/C(=O)Nc2cn(Cc3cccc(C(F)(F)F)c3)cn2)c1 [Example 105] |  |  |  | 0.85 | 0.94 | 5.05 | 
31 | O=C(Nc1cn(Cc2cccc(C(F)(F)F)c2)cn1)/C(F)=C/c1cccnc1 [Example 106] |  |  |  | 3.06 | 0.8 | 8.29 | 
32 | CCOc1ccc(/C=C/C(=O)Nc2cn(Cc3cccc(C(F)(F)F)c3)cn2)cn1 [Example 107] |  |  |  | 0.07 | 0.04 | > 10 | 
33 | O=C(/C=C/c1cccc(Oc2ccccc2)c1)Nc1cn(Cc2cccc(OC(F)(F)F)c2)cn1 [Example 108] |  |  |  | 9.77 | 3.43 | 3.31 | 
34 | O=C(/C=C/c1cccnc1)Nc1cn(Cc2cccc(OC(F)(F)F)c2)cn1 [Example 109] |  |  |  | 0.67 | 0.75 | 2.65 | 
35 | Cc1cccc(/C=C/C(=O)Nc2cn(Cc3cccc(OC(F)(F)F)c3)cn2)c1 [Example 110] |  |  |  | 1.92 | 5.67 | 7.21 | 
36 | O=C(Nc1cn(Cc2cccc(OC(F)(F)F)c2)cn1)/C(F)=C/c1cccnc1 [Example 111] |  |  |  | 0.99 | 0.83 | 9.31 | 
37 | CCOc1ccc(/C=C/C(=O)Nc2cn(Cc3cccc(OC(F)(F)F)c3)cn2)cn1 [Example 112] |  |  |  | 0.07 | 0.04 | > 10 | inhibitory effect on the sphere-forming ability of cancer cells (HCT-116 cells): particularly potent inhibitory effect
38 | Cc1ccc(F)c(Cn2cnc(NC(=O)/C=C/c3cccnc3)c2)c1F [Example 113] |  |  |  | > 10 | 0.53 | 0.54 | 
39 | Cc1ccc(F)c(Cn2cnc(NC(=O)/C=C/c3cccc(Oc4ccccc4)c3)c2)c1F [Example 114] |  |  |  | 0.72 | 0.69 | 0.62 | 
40 | Cc1cccc(/C=C/C(=O)Nc2cn(Cc3c(F)ccc(C)c3F)cn2)c1 [Example 115] |  |  |  | 0.79 | 0.66 | 0.79 | 
41 | Cc1ccc(F)c(Cn2cnc(NC(=O)/C(F)=C/c3cccnc3)c2)c1F [Example 116] |  |  |  | 0.93 | 0.8 | > 10 | 
42 | COc1ccc(/C=C/C(=O)Nc2cn(Cc3cccc(Cl)c3)cn2)cc1 [Example 118, (E)-N-(1-(3-Chlorobenzyl)-1H-imidazol-4-yl)-3-(4-methoxyphenyl)acrylamide] |  |  |  | 0.07 | < 0.01 | 0.1 | inhibitory effect on the sphere-forming ability of cancer cells (HCT-116 cells): particularly potent inhibitory effect
43 | O=C(/C=C/c1ccsc1)Nc1cn(Cc2cccc(Cl)c2)cn1 [Example 119] |  |  |  | 0.56 | 0.16 | 0.67 | 
44 | CCCCOc1ccc(C(=O)Nc2cn(Cc3cccc(Cl)c3)cn2)cn1 [Example 135] |  |  |  |  |  |  | (100%-inhibition rate of cell proliferation) at 1 μmol/L, FaDu (FaDu cells; 1 μmol/L, value with %): 25.0%; (100%-inhibition rate of cell proliferation) at 1 μmol/L, HT-29 (HT-29 cells; 1 μmol/L, value with %): 28.0%; (100%-inhibition rate of cell proliferation) at 1 μmol/L, HCT-116 (HCT-116 cells; HCT-116 cells, 1 μmol/L, value with %): 31.8%
